From patent US8470835B2, “Pyrimidinecarboxamide derivatives as inhibitors of Syk kinase” (Glaxo Group Limited, priority 2009, dated 2013)
Read-outs that look alike come from different tables or passages of the source.

Columns and labels:
[1] = system: allergic rhinitis; settings: phase II; cited from earlier work
[2] = system: allergic rhinitis; settings: dosed intranasally; cited from earlier work
[3] = system: patients with relapsed or refractory B-Cell non-Hodgkin's lymphoma (NHL); settings: cited from earlier work
[4] = system: Ramos B cells; assay: Ramos pErk assay (4); format: cell-based; settings: Homo sapiens, anti-IgM stimulated
Protocol: Ramos B cells (human B cells of Burkitt's Lymphoma) are stimulated using anti-IgM. […] As a result Erk is phosphorylated and following cell lysis is detected by an immune capture assay.
Stimulation of Ramos Cells with Anti-IqM
Cells were plated at a density of 5×10^5/well in a volume of 25 μl assay medium (RPMI containing 10% heat inactivated foetal calf serum, 1% L-glutamine and 1% Penicillin/Streptomycin) in 96 v-well polypropylene plates. […] Cells are lysed by the addition of 55 μL 2×RIPA lysis buffer for 2 h at 4° C.
50 μl cell lysate was transferred to a 96 well MSD plate coated with anti-pErk1/2 (Thr/Thy: 202/204; 185/187) capture antibody and incubated for 16 hours at 4° C. The plate was washed and an anti-pErk detection antibody added (25 μl/well) for 2 h at room temperature. This was removed, 150 μL MSD read buffer added and the resultant electrochemiluminescence signal measured.

[5] = system: Whole blood B cells; assay: CD69 whole blood assay (6); format: cell-based; settings: Homo sapiens, B-cell, all data points
Protocol: 6. CD69 Whole Blood Assay
Whole blood B cells are stimulated ex-vivo using anti-IgM. […] The subsequent autophosphorylation of Syk leads to initiation of a signalling cascade resulting in B cell activation as indicated by expression of the activation marker CD69 on the cell surface. CD20/CD69+ve whole blood B cells are detected by flow cytometry.
Stimulation of Whole Blood B Cells with Anti-IqM
100 μl heparinised human blood was added to a 5 ml polypropylene tube containing 1 μl appropriately diluted compound solution and incubated for 30 min at 37° C. with 5% CO2. B cells were stimulated with 10 μl Fab′2 fragments of goat anti-human IgM (67.5 μg/ml final) for a further 3.5 h under the conditions previously described. The red blood cells were lysed and all other cells fixed by the addition of 2 ml Lyse/Fix buffer for 10 min at room temperature.
The cells were stained using a cocktail of mouse anti-human CD20 FITC and mouse anti-human CD69 APC conjugated antibodies. CD20/CD69+ve B cells present in the sample were detected by flow cytometry.
Compound dilutions were prepared using the Biomek 2000 automated robotic pipetting system.

[6] = biological target: Recombinant human VEGFR2 (KDR) (Homo sapiens (Human), UniProt P35968); assay: VEGFR2 (KDR) enzyme assay, TR-FRET kinase assay (3); format: biochemical; settings: read-out: Vegfr enzyme assay (3) IC50
Sequence of Recombinant human VEGFR2 (KDR) (P35968 786-1356): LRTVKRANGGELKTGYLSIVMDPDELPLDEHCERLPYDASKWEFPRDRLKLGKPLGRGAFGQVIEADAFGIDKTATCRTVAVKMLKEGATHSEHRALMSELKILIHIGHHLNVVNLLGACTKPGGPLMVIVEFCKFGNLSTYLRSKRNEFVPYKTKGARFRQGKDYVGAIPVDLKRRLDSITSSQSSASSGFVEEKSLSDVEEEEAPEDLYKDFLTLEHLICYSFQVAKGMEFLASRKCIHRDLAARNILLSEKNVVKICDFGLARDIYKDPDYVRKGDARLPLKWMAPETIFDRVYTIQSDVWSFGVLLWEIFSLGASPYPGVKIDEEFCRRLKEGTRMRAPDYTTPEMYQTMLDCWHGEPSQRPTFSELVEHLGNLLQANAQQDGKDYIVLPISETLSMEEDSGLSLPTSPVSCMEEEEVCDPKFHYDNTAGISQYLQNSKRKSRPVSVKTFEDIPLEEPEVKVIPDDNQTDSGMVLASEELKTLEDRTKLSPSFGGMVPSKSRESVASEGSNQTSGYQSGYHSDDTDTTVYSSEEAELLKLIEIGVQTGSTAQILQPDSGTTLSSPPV
Protocol: VEGFR2 (KDR) Enzyme Assay—Time-resolved Fluorescence Resonance Energy Transfer Kinase Assay
Recombinant human VEGFR2 (KDR) intracellular domain (including the entire kinase domain) was expressed as a GST-6His-tagged protein*. The activity of VEGFR2 was assessed using a time-resolved fluorescence resonance energy transfer (TR-FRET) assay. Test compounds at the desired concentrations in 100% DMSO or 100% DMSO vehicle were added in 0.1 μL to a Greiner low-volume, 384-well, black plate (#784076). The plate was centrifuged minimally at 1000 RPM for 1 min. to force all of the liquid to the bottom of the wells prior to addition of any assay reagents. *Purification of Recombinant GST-6His-VEGFR2
VEGFR2 (100 nM typically) was activated at room temperature for 20 min. in the presence of 100 mM HEPES, pH 7.5, 10 mM MgCl2, 100 μM ATP, 300 μM DTT, and 0.1 mg/mL BSA. […] The solution of activated VEGFR2 was diluted 100-fold in 200 mM HEPES, pH 7.5, 0.2 mg/mL BSA, and 0.6 mM DTT. The VEGFR2 catalyzed reaction was initiated by the addition of 5 μL of the diluted, activated VEGFR2. […] After incubation for 10 min. at room temperature, phosphorylation of the biotinylated peptide substrate was measured as a ratio of specific 665 nm energy transfer signal to reference europium 615 nm signal using a Viewlux 1430 ultraHTS Microplate Imager (PerkinElmer, Turku, Finland).

[7] = system: B lymphoma (BKS-2); settings: mouse, in vivo; cited from earlier work

In the case of `Oc1cccc(Nc2ncc(F)c(Nc3cccc(O)c3)n2)c1` [Example R112], the efficacy versus placebo [1] is listed as “lack of efficacy versus placebo”, the “change in PGD2” value [2] is listed as “statistically significant decrease” and the clinical safety [2] is listed as “safe across a range of indicators”.
For `COc1cc(Nc2ncc(F)c(Nc3ccc4c(n3)N(COP(=O)(O)O)C(=O)C(C)(C)O4)n2)cc(OC)c1OC` [Example R788, fostamatinib disodium], the clinical efficacy ([3]; patients with DLBCL and CLL/SLL) is given as “therapeutic benefit” and the tolerability in patients ([3]; relapsed or refractory B-Cell NHL) is given as “well-tolerated”.
With `Cc1cccc(Nc2nc(N[C@@H]3CCCC[C@@H]3N)ncc2C(N)=O)c1` [Reference example 1] the IC50 ([4]; read-out: RAMOS pErk assay (4) IC50) was 32 nM, the IC50 ([4]; read-out: RAMOS pErk assay (4) pIC50 (converted)) was 31.6 nM and the IC50 ([5]; read-out: CD69 whole blood assay (6) IC50) was 500 nM. For the same molecule, the IC50 ([5]; read-out: CD69 whole blood assay (6) pIC50 (converted)) was 501 nM and the IC50 [6] was 6300 nM.
For `COc1cc(/C=C/C(=O)CC(=O)/C=C/c2ccc(O)c(OC)c2)ccc1O` [curcumin], the “tumour burden as measured by the total splenocyte number” value [7] is given as “significant reduction of tumour burden”.
